# Results from article PMC6518791, “Gluconate suppresses seizure activity in developing brains by inhibiting CLC-3 chloride channels” (Molecular Brain, 2019).
# Molecular target: T1, CLC-3 Cl^− channels (neonatal mouse hippocampal CA3 pyramidal neurons) (Mus musculus, UniProt P51791)
# T1 construct: gene Clcn3; native channel, CA3 pyramidal neurons in hippocampal slices (P10-12); current largely absent in Clcn3-/- neurons
# T1 sequence (P51791 1-818): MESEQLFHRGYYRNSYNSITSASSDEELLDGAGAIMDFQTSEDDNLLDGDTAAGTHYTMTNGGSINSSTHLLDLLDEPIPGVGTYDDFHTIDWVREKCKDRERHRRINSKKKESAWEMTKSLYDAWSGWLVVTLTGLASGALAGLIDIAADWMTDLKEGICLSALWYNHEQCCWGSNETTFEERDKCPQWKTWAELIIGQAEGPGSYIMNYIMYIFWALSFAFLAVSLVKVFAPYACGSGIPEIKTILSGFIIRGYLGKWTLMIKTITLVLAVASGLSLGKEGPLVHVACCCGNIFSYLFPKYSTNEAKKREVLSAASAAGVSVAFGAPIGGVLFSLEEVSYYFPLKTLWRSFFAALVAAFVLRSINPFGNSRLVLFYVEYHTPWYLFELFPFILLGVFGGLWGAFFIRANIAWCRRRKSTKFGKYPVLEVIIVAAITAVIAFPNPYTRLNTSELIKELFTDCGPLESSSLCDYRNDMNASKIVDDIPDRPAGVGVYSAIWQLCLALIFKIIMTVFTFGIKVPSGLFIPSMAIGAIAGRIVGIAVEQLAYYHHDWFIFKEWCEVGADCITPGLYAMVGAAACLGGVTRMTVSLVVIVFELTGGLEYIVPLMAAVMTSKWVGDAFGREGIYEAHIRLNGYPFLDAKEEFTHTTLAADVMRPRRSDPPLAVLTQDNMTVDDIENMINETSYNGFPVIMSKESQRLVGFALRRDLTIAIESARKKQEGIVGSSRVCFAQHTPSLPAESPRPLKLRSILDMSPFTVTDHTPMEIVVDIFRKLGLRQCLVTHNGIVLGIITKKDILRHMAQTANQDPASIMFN
# Experiment: whole-cell patch clamp, voltage-dependent Cl- current in brain slices
# Conditions: total neuronal Cl- current, no knockout control told
smiles,measurement,value
C[C@@H](O)CC(=O)O [β-HB],IC50,~6.2 mM
